Experimental data from patent US20250163052A1, “cGAS INHIBITORS AND USES THEREOF” (Cornell University, priority 2022, published 2025).

Key:
h-cGAS = h-cGAS (Homo sapiens, UniProt Q8N884); assay: Cell-free human cGAS enzyme inhibition assay (ATP depletion, Kinase-Glo Max); assay type: biochemical; conditions: 3 h; for inhibition at 1 µM: read-out: h-cGAS, conc. 1 μM; for inhibition at 10 µM: read-out: h-cGAS, conc. 10 μM
Description: (§1) Cell-free mouse and human cGAS enzyme inhibition assay (Table 2). Activity of all compounds (in Table 1) against m-cGAS (30 nM) and or h-cGAS, (100 nM) was determined by measuring the conversion of ATP and GTP (100 μM each) to cGAMP in the presence of dsDNA (5 ug/mL) in a reaction buffer composed of Tris-HCl (20 mM, pH7.4), NaCl (150 mM), MnCl2 (0.2 mM, h-cGAS) or MgCl2 (5 mM, m-cGAS) and Tween-20 (0.01%), and the remaining ATP concentration using Kinase-Glo®Max Luminescent Kinase Assay (Promega, Madison, WI), as described (Lama, et. al., 2019). Briefly, 10 μl of a master mix of 0.4 mM ATP, 0.4 mM GTP, 0.02 mg/mL dsDNA in the reaction buffer supplemented with 2 mM DTT was added to reaction wells containing TDI-6570 or TDI-8246 (2× of the desired concentration) in the same buffer ([…]) using a Thermo 8-channel Multidrop Combi dispenser. Next, 10 μl of a 4×m-cGAS (0.120 μM) or h-cGAS (0.4 μM) solution in the reaction buffer supplemented with 2 mM DTT was added to appropriate wells. Similar sets of reactions without cGAS or the inhibitor was set by adding the buffer alone. The reactions with the plates sealed were incubated at 37° C. (1 hour for m-cGAS and 3 hours for h-cGAS) and stopped by addition of 40 μl of the Kinase-Glo®Max. The luminescence was recorded in relative light units (RLUs) using a Biotek Synergy H1 Hybrid plate reader (BioTek, Winooski, VT). […] All reactions were run in triplicates and calculated using GraphPad Prism 9. The values represent mean IC50±S.D.

IFNB = assay: THP1-Dual cells transfected with DNA, Ifnb expression (Quantiluc); assay type: cell-based; conditions: Homo sapiens; for inhibition at 10 µM: THP-1, 10 μM; for inhibition at 30 µM: THP-1, 30 μM
Description: (§2) Evaluation of active cGAS inhibitors in THP1 cells (Table 3). Cellular activity of all compounds (in Table 3) was determined using THP1-Dual™ cells as described (Lama et. al., 2019). THP1-Dual™ cells (Invivogen) (50000 cells in 100 μl media) were seeded into each well of a 96-well plate and treated with compounds at various dilution for 4 hours. Subsequently, cells were transfected with DNA (2 ug/ml) and lipofectamine and incubate the cells were incubated overnight. Ifnb expression was measured in cell supernatant using Quantiluc, nfkb expression was determined using Quantiblue, and cell viability using Promega® CellTiter-Glo®.

m-cGAS = m-cGAS (Mus musculus, UniProt Q8C6L5); assay: Cell-free mouse cGAS enzyme inhibition assay (ATP depletion, Kinase-Glo Max); assay type: biochemical; conditions: 1 h; for inhibition at 10 µM: read-out: m-cGAS, conc. 10 μM; for inhibition at 1 µM: read-out: m-cGAS, conc. 1 μM
Description: as §1

NFkB-SEAP = assay: THP1-Dual cells transfected with DNA, nfkb expression (Quantiblue); assay type: cell-based; conditions: Homo sapiens; for inhibition at 10 µM: THP-1, 10 μM; for inhibition at 30 µM: THP-1, 30 μM
Description: as §2

THP1 cells = assay: THP1-Dual cells, cell viability (CellTiter-Glo); assay type: cell-based
Description: as §2

m-cGAS, sequence (Q8C6L5 whole entry): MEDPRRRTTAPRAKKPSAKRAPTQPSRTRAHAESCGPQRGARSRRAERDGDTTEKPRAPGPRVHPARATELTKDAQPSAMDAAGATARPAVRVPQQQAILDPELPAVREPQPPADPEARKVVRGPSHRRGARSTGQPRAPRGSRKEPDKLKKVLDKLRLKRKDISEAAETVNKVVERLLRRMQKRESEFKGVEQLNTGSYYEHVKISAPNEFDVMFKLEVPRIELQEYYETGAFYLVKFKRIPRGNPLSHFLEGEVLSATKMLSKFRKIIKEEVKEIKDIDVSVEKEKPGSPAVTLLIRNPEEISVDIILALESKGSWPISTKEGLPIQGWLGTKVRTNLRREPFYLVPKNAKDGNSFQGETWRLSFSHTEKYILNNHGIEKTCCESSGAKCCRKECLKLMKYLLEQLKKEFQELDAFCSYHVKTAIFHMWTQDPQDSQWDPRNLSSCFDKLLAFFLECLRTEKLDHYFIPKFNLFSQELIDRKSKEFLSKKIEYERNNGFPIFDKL
h-cGAS, sequence (Q8N884 whole entry): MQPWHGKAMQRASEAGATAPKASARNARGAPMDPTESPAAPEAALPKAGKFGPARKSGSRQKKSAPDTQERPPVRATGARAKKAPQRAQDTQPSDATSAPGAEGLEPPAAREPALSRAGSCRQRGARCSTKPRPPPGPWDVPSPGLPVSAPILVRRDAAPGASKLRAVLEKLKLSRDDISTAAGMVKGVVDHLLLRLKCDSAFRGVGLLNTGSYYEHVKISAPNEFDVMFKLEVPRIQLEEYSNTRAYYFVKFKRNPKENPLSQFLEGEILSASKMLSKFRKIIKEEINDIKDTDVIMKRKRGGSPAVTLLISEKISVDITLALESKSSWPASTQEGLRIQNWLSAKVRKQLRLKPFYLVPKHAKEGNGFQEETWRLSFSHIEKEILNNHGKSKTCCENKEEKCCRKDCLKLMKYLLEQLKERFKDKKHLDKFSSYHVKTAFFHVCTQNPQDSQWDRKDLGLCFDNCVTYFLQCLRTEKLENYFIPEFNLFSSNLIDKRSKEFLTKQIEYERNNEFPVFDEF

SMILES	inhibition at 1 µM (h-cGAS)	inhibition at 10 µM (h-cGAS)	inhibition at 10 µM (IFNB)	inhibition at 30 µM (IFNB)	inhibition at 10 µM (m-cGAS)	inhibition at 10 µM (NFkB-SEAP)	inhibition at 30 µM (NFkB-SEAP)	Cell viability 10 μM (THP1 cells)	Cell viability 30 μM (THP1 cells)	inhibition at 1 µM (m-cGAS)
Cn1c2c(c3c(Br)cc(Cl)c(Cl)c31)CN(C(=O)CN)CC2 [Compound 6]	0 to 24%	75 to 100%	< 24%	< 24%	75 to 100%	< 24%	25 to 49%	+++ (+, ++, and +++ mean the compound respectively shows 25-49%; 50-74%; or 75-100% viability to cells)	+++ (+, ++, and +++ mean the compound respectively shows 25-49%; 50-74%; or 75-100% viability to cells)	
Cn1c2c(c3c(-c4cncnc4)cc(Cl)c(Cl)c31)CN(C(=O)CN)CC2 [Compound 8]	50 to 74%	75 to 100%	50 to 74%	75 to 100%	0 to 24%	25 to 49%	50 to 74%	+++ (+, ++, and +++ mean the compound respectively shows 25-49%; 50-74%; or 75-100% viability to cells)	− (Cell viability <24%, in THP1 cells is expressed as “−”)	
CN1c2c(Cl)c(Cl)cc(-c3cncnc3)c2C2CN(C(=O)CN)CCC21 (stereo not drawn) [Compound 9]	50 to 74%	75 to 100%	< 24%	< 24%	0 to 24%	< 24%	< 24%	+++ (+, ++, and +++ mean the compound respectively shows 25-49%; 50-74%; or 75-100% viability to cells)	+++ (+, ++, and +++ mean the compound respectively shows 25-49%; 50-74%; or 75-100% viability to cells)	
Cn1cc(-c2cc(Cl)c(Cl)c3c2c2c(n3C)CCN(C(=O)CNC(=O)OC(C)(C)C)C2)cn1 [Compound 10]		75 to 100%	< 24%	75 to 100%	0 to 24%	< 24%	50 to 74%	+++ (+, ++, and +++ mean the compound respectively shows 25-49%; 50-74%; or 75-100% viability to cells)	+++ (+, ++, and +++ mean the compound respectively shows 25-49%; 50-74%; or 75-100% viability to cells)	
CN1c2c(Cl)c(Cl)cc(-c3cnn(C)c3)c2C2CN(C(=O)CN)CCC21 (stereo not drawn) [Compound 12]	0 to 24%	75 to 100%	< 24%		0 to 24%	< 24%		+++ (+, ++, and +++ mean the compound respectively shows 25-49%; 50-74%; or 75-100% viability to cells)		
Nc1ccc(-c2cc(Cl)c(Cl)c3[nH]c4c(c23)CN(C(=O)[C@@H]2CCCN2)CC4)cn1 [Compound 16]		75 to 100%	75 to 100%	75 to 100%	0 to 24%	75 to 100%	75 to 100%	+++ (+, ++, and +++ mean the compound respectively shows 25-49%; 50-74%; or 75-100% viability to cells)	+ (+, ++, and +++ mean the compound respectively shows 25-49%; 50-74%; or 75-100% viability to cells)	
Cn1c2c(c3c(-c4ccc(N)nc4)cc(Cl)c(Cl)c31)CN(C(=O)C1CCCN1)CC2 (stereo not drawn) [Compound 17]	25 to 49%	75 to 100%	25 to 49%	75 to 100%	0 to 24%	25 to 49%	75 to 100%	+++ (+, ++, and +++ mean the compound respectively shows 25-49%; 50-74%; or 75-100% viability to cells)	++ (+, ++, and +++ mean the compound respectively shows 25-49%; 50-74%; or 75-100% viability to cells)	
CC(C)(N)C(=O)N1CCc2[nH]c3c(Cl)c(Cl)cc(-c4cc[nH]n4)c3c2C1 [Compound 20]	25 to 49%	75 to 100%	50 to 74%	75 to 100%	0 to 24%	75 to 100%	75 to 100%	+++ (+, ++, and +++ mean the compound respectively shows 25-49%; 50-74%; or 75-100% viability to cells)	+++ (+, ++, and +++ mean the compound respectively shows 25-49%; 50-74%; or 75-100% viability to cells)	
O=C(CO)N1CCc2oc3c(Cl)c(Cl)ccc3c2C1 [Compound 21]		25 to 49%		< 24%	75 to 100%		< 24%		+++ (+, ++, and +++ mean the compound respectively shows 25-49%; 50-74%; or 75-100% viability to cells)	
O=C(CO)N1CCc2oc3c(Cl)c(Cl)cc(-c4cncnc4)c3c2C1 [Compound 25]	25 to 49%	50 to 74%		< 24%	50 to 74%	< 24%		+++ (+, ++, and +++ mean the compound respectively shows 25-49%; 50-74%; or 75-100% viability to cells)		0 to 24%
NCC(=O)N1CCc2oc3c(Cl)c(Cl)cc(-c4cncnc4)c3c2C1 [Compound 32]	25 to 49%	50 to 74%	< 24%	< 24%	75 to 100%	< 24%	< 24%	+++ (+, ++, and +++ mean the compound respectively shows 25-49%; 50-74%; or 75-100% viability to cells)	+++ (+, ++, and +++ mean the compound respectively shows 25-49%; 50-74%; or 75-100% viability to cells)	50 to 74%
NCC(=O)N1CCc2sc3c(Cl)c(Cl)cc(-c4cncnc4)c3c2C1 [Compound 53]	0 to 24%	50 to 74%	< 24%	75 to 100%	75 to 100%	25 to 49%	50 to 74%	+++ (+, ++, and +++ mean the compound respectively shows 25-49%; 50-74%; or 75-100% viability to cells)	− (Cell viability <24%, in THP1 cells is expressed as “−”)	0 to 24%
Cn1cc(-c2cc(Cl)c(Cl)c3sc4c(c23)CCN(C(=O)CO)C4)cn1 [Compound 62]		25 to 49%	50 to 74%		75 to 100%	< 24%		+++ (+, ++, and +++ mean the compound respectively shows 25-49%; 50-74%; or 75-100% viability to cells)		25 to 49%
